From the NIST ThermoML archive (doi:10.1016/j.fluid.2008.03.004)

Assay: xn = mol fraction of the nth substance listed
Details: 101 kPa, Liquid; for speed of sound: Sing-around technique in a fixed-path interferometer

Cc1ccccc1C [1,2-dimethylbenzene] + COC(C)(C)C
Details	mass density [kg/m3]	speed of sound [m/s]
288.15 K, x2 = 0	883.36	1381.3
288.15 K, x2 = 0.052	876.722	1374.2
288.15 K, x2 = 0.101	870.811	1361.2
288.15 K, x2 = 0.203	857.652	1332.7
288.15 K, x2 = 0.303	844.603	1302.7
288.15 K, x2 = 0.401	831.766	1274.2
288.15 K, x2 = 0.499	818.201	1243.3
288.15 K, x2 = 0.604	803.537	1212.8
288.15 K, x2 = 0.707	788.841	1179
288.15 K, x2 = 0.8	775.294	1148.4
288.15 K, x2 = 0.9	760.339	1119.5
288.15 K, x2 = 0.95	752.593	1099.1
290.65 K, x2 = 0	881.265	1371.8
290.65 K, x2 = 0.052	874.606	1364.9
290.65 K, x2 = 0.101	868.675	1350.7
290.65 K, x2 = 0.203	855.478	1322.1
290.65 K, x2 = 0.303	842.386	1292
290.65 K, x2 = 0.401	829.505	1263.3
290.65 K, x2 = 0.499	815.897	1232.4
290.65 K, x2 = 0.604	801.177	1201.5
290.65 K, x2 = 0.707	786.421	1167.7
290.65 K, x2 = 0.8	772.825	1136.8
290.65 K, x2 = 0.9	757.801	1107.9
290.65 K, x2 = 0.95	750.025	1087.4
293.15 K, x2 = 0	879.168	1362.2
293.15 K, x2 = 0.052	872.486	1354.8
293.15 K, x2 = 0.101	866.535	1340.3
293.15 K, x2 = 0.203	853.3	1311.6
293.15 K, x2 = 0.303	840.168	1281.4
293.15 K, x2 = 0.401	827.242	1252.5
293.15 K, x2 = 0.499	813.586	1221.6
293.15 K, x2 = 0.604	798.814	1190.3
293.15 K, x2 = 0.707	783.998	1156.6
293.15 K, x2 = 0.8	770.35	1125.5
293.15 K, x2 = 0.9	755.264	1096.5
293.15 K, x2 = 0.95	747.451	1075.9
295.65 K, x2 = 0	877.069	1351.8
295.65 K, x2 = 0.052	870.364	1344.5
295.65 K, x2 = 0.101	864.394	1329.8
295.65 K, x2 = 0.203	851.12	1301.1
295.65 K, x2 = 0.303	837.944	1270.7
295.65 K, x2 = 0.401	824.973	1241.8
295.65 K, x2 = 0.499	811.273	1210.7
295.65 K, x2 = 0.604	796.444	1179.3
295.65 K, x2 = 0.707	781.567	1145.4
295.65 K, x2 = 0.8	767.869	1114.1
295.65 K, x2 = 0.9	752.717	1085.1
295.65 K, x2 = 0.95	744.871	1064.4
298.15 K, x2 = 0	874.968	1341.5
298.15 K, x2 = 0.052	868.242	1334.2
298.15 K, x2 = 0.101	862.253	1319.6
298.15 K, x2 = 0.203	848.937	1290.6
298.15 K, x2 = 0.303	835.714	1260.1
298.15 K, x2 = 0.401	822.702	1231.1
298.15 K, x2 = 0.499	808.953	1199.9
298.15 K, x2 = 0.604	794.069	1168.2
298.15 K, x2 = 0.707	779.131	1134.3
298.15 K, x2 = 0.8	765.379	1102.7
298.15 K, x2 = 0.9	750.16	1073.7
298.15 K, x2 = 0.95	742.284	1052.9
300.65 K, x2 = 0	872.865	1331.2
300.65 K, x2 = 0.052	866.116	1323.9
300.65 K, x2 = 0.101	860.108	1309.4
300.65 K, x2 = 0.203	846.749	1280.2
300.65 K, x2 = 0.303	833.484	1249.6
300.65 K, x2 = 0.401	820.426	1220.3
300.65 K, x2 = 0.499	806.626	1189.1
300.65 K, x2 = 0.604	791.685	1157.2
300.65 K, x2 = 0.707	776.688	1123.2
300.65 K, x2 = 0.8	762.882	1091.4
300.65 K, x2 = 0.9	747.591	1062.2
300.65 K, x2 = 0.95	739.686	1041.5
303.15 K, x2 = 0	870.759	1321
303.15 K, x2 = 0.052	863.985	1313.7
303.15 K, x2 = 0.101	857.959	1299.2
303.15 K, x2 = 0.203	844.558	1269.8
303.15 K, x2 = 0.303	831.25	1239.1
303.15 K, x2 = 0.401	818.144	1209.7
303.15 K, x2 = 0.499	804.296	1178.4
303.15 K, x2 = 0.604	789.298	1146.3
303.15 K, x2 = 0.707	774.237	1112.1
303.15 K, x2 = 0.8	760.378	1080.2
303.15 K, x2 = 0.9	745.002	1050.7
303.15 K, x2 = 0.95	737.076	1030
305.65 K, x2 = 0	868.65	1310.8
305.65 K, x2 = 0.052	861.853	1303.6
305.65 K, x2 = 0.101	855.807	1289
305.65 K, x2 = 0.203	842.365	1259.5
305.65 K, x2 = 0.303	829.01	1228.6
305.65 K, x2 = 0.401	815.857	1199
305.65 K, x2 = 0.499	801.959	1167.7
305.65 K, x2 = 0.604	786.901	1135.3
305.65 K, x2 = 0.707	771.779	1101
305.65 K, x2 = 0.8	757.862	1069
305.65 K, x2 = 0.9	742.391	1038.7
305.65 K, x2 = 0.95	734.452	1018.6
308.15 K, x2 = 0	866.538	1300.7
308.15 K, x2 = 0.052	859.718	1293.5
308.15 K, x2 = 0.101	853.654	1278.9
308.15 K, x2 = 0.203	840.166	1249.1
308.15 K, x2 = 0.303	826.764	1218.2
308.15 K, x2 = 0.401	813.564	1188.5
308.15 K, x2 = 0.499	799.615	1157
308.15 K, x2 = 0.604	784.495	1124.5
308.15 K, x2 = 0.707	769.312	1089.9
308.15 K, x2 = 0.8	755.336	1058
308.15 K, x2 = 0.9	739.788	1026.9
308.15 K, x2 = 0.95	731.817	1007.3
310.65 K, x2 = 0	864.422	1290.6
310.65 K, x2 = 0.052	857.577	1283.5
310.65 K, x2 = 0.101	851.495	1268.9
310.65 K, x2 = 0.203	837.963	1238.9
310.65 K, x2 = 0.303	824.515	1207.9
310.65 K, x2 = 0.401	811.267	1178
310.65 K, x2 = 0.499	797.264	1146.5
310.65 K, x2 = 0.604	782.083	1113.6
310.65 K, x2 = 0.707	766.837	1078.8
310.65 K, x2 = 0.8	752.799	1046.9
310.65 K, x2 = 0.9	737.174	1015.4
310.65 K, x2 = 0.95	729.169	996.05
313.15 K, x2 = 0	862.302	1280.6
313.15 K, x2 = 0.052	855.433	1273.4
313.15 K, x2 = 0.101	849.333	1258.9
313.15 K, x2 = 0.203	835.755	1228.7
313.15 K, x2 = 0.303	822.257	1197.6
313.15 K, x2 = 0.401	808.961	1167.5
313.15 K, x2 = 0.499	794.906	1135.9
313.15 K, x2 = 0.604	779.664	1102.8
313.15 K, x2 = 0.707	764.349	1067.7
313.15 K, x2 = 0.8	750.25	1035.9
313.15 K, x2 = 0.9	734.547	1003.8
313.15 K, x2 = 0.95	726.508	984.72
315.65 K, x2 = 0	860.179	1270.5
315.65 K, x2 = 0.052	853.286	1263.4
315.65 K, x2 = 0.101	847.168	1248.9
315.65 K, x2 = 0.203	833.542	1218.5
315.65 K, x2 = 0.303	819.996	1187.3
315.65 K, x2 = 0.401	806.651	1157.1
315.65 K, x2 = 0.499	792.544	1125.3
315.65 K, x2 = 0.604	777.236	1092
315.65 K, x2 = 0.707	761.858	1056.8
315.65 K, x2 = 0.8	747.693	1024.9
315.65 K, x2 = 0.9	731.912	992.02
315.65 K, x2 = 0.95	723.834	973.42
318.15 K, x2 = 0	858.054	1260.6
318.15 K, x2 = 0.052	851.136	1253.5
318.15 K, x2 = 0.101	845	1239
318.15 K, x2 = 0.203	831.325	1208.4
318.15 K, x2 = 0.303	817.731	1177.1
318.15 K, x2 = 0.401	804.337	1146.7
318.15 K, x2 = 0.499	790.173	1114.9
318.15 K, x2 = 0.604	774.802	1081.2
318.15 K, x2 = 0.707	759.355	1045.8
318.15 K, x2 = 0.8	745.123	1014
318.15 K, x2 = 0.9	729.271	980.41
318.15 K, x2 = 0.95	721.145	962.22
320.65 K, x2 = 0	855.927	1250.7
320.65 K, x2 = 0.052	848.981	1243.6
320.65 K, x2 = 0.101	842.834	1229.1
320.65 K, x2 = 0.203	829.108	1198.3
320.65 K, x2 = 0.303	815.461	1166.9
320.65 K, x2 = 0.401	802.016	1136.4
320.65 K, x2 = 0.499	787.797	1104.4
320.65 K, x2 = 0.604	772.358	1070.5
320.65 K, x2 = 0.707	756.834	1034.8
320.65 K, x2 = 0.8	742.544	1003.2
320.65 K, x2 = 0.9	726.621	968.31
320.65 K, x2 = 0.95	718.446	951.04
323.15 K, x2 = 0	853.803	1240.9
323.15 K, x2 = 0.052	846.833	1233.9
323.15 K, x2 = 0.101	840.678	1219.5
323.15 K, x2 = 0.203	826.892	1188.3
323.15 K, x2 = 0.303	813.194	1156.9
323.15 K, x2 = 0.401	799.699	1126.2
323.15 K, x2 = 0.499	785.421	1094.1
323.15 K, x2 = 0.604	769.917	1059.9
323.15 K, x2 = 0.707	754.356	1024.2
323.15 K, x2 = 0.8	739.964	992.41
323.15 K, x2 = 0.9	723.991	957.28
323.15 K, x2 = 0.95	715.742	940.07
